# Laboratory results from US8314255B2, “Use of phthalimide and/or sulphonamide derivatives in the treatment of diseases which require reducing the TNF- α levels and an exogenous source of nitric oxide, phthalimide derivatives, sulphonamide derivatives, and a method for obtaining a sulphonamide derivative” (priority 2007, dated 2012).
# Marks after values point to notes of the source that are not given here.
# Columns and labels:
# [1] = tested on: Salmonella typhimurium TA100; test: AMES test, mutagenic evaluation in Salmonella typhimurium TA100 strain with/without metabolic activation (S9); assay type: cell-based
# Protocol: The procedure was firstly developed by (MARON, D. M. and AMES, B. N. Mut. Res. v. 113, pp. 173-215, 1983)
# For this assay, Salmonella typhimurium TA100 and TA102 strains from the mutagenicity laboratory of the “Faculdade de Ciências Farmacêuticas—UNESP Araraquara” were used. Such strains have the following characteristics: (AMES, 1983)
# The positive controls are mutagenic compounds specific for each strain and test condition, with 25 μL/plate of sodium azide (1.25 μg/plate) and 100 μL of mitomycin (0.5 μg/plate) being the controls for TA100 and TA102, respectively, in the absence of metabolic activation. For assays with metabolic activation, the positive control for TA100 is 50 μL 2-antramine (1.25 μg/plate) and for TA102 it is 50 μL 2-aminofluorene (1.25 μg/plate).
# The preincubation method was used.
# In laminar flow, Salmonella typhimurium (TA100 and TA 102) strains were inoculated individually with a platinum loop, in the respective nutrient broths and maintained at 37° C., under constant stirring (160 rpm) during 14 hours, in order to achieve a density of 1 to 2×10^9 bacteria/mL.
# Different concentrations of the compounds were added into 100 μL of 0.2M phosphate buffer pH 7.4 (or 500 μL of the mixture S9 in metabolic activation assays) and incubated for 20-30 minutes at 37° C. Solutions containing the compounds had DMSO as the solvent. Thereafter, 2 mL of top agar supplemented with traces of histidine and biotin was added, homogenized and plated in glycosylated minimum medium. After solidification of the top agar, the plates were incubated for 48 hours at a 37° C. Then, the counting of the number of revertant colonies per plate was performed. All tested concentrations, positive and negative controls were run in triplicate.
# After 48 hours, the revertant colonies were counted manually, and the protoCOL Colony Counter Version 3.15.630 (1998-2001) SYNBIOSIS LTD system was used for the positive control.
# The final data obtained from the assay was analyzed using the statistical software Salanal (Salmonella Assay Analysis) version 1.0 from the Research Triangle Institute, RTP, North Carolina, USA. Such software allows the dose-response effect to be evaluated by means of analysis of variance (ANOVA-test F) computations between the measurement of the number of revertants at the different tested concentrations (doses) and the negative control, followed by a linear regression. The software model chosen for analyzing the data was Bernstein's (BERNSTEIN, L. et al. Mutat. Res. v. 97, p. 267-281, 1982). The slope of the straight line from the linear portion of the dose-response curve is also provided by this software and corresponds to the number of revertants induced per measurement unit of the analyzed sample.
# From the results, the mutagenicity ratio (MR) was computed for each analyzed dose from each compound. MR is given by the following equation:
# MR=average number of revertants per test plate (spontaneous+induced revertants) […] average number of revertants per plate of the negative control (spontaneous revertants)
# The spontaneous growing means that the number of revertants which developed on the plate, regardless of being induced or not, wherein values higher or equal to 2 are considered as a positive response (VALENT, G. V. et al. Env. Toxicol. Water Quality. v. 8, p. 371-381, 1993).
# The mutagenicity test with metabolic activation system was performed with a microsomal fraction S9 (S9 mix) prepared from a liver homogenizate from Sprague Dawley rats, previously treated with Aroclor 1254, acquired in the freeze-dried form.
# The procedure for this assay is the same, however, instead of the buffer, 500 μL of the S9 mixture should be added.
# The S9 mixture has a viability of 4 hours from preparation when put on ice. The plates are then incubated for 48 hours at 37° C. After the required time has elapsed, the counting of the revertant colonies was carried out. All tested concentrations, positive and negative controls were run in triplicate.
# [2] = tested on: leukocyte infiltration, peritonitis induced by thioglycolate; test: Peritonitis assay induced by 3% thioglycolate; assay type: in vivo; conditions: 300 μMol/Kg orally, mouse, 3% thioglycolate i.p., 4 h
# Protocol: In a second assay, the number of total leukocytes (10^6/mL) was evaluated in order to evaluate the ability to inhibit their infiltration in the inflammatory process.
# The mice were treated with the substances being analyzed or carrier and after 1 h of oral administration, they were simultaneously subjected to the peritonitis assay, by administering intraperitoneally 1 ml of a 3% thioglycolate solution. 4 h after the administration of thioglycolate, the peritoneal cavity was washed with 3 ml of a HANKS solution (Balanced salt solution, free of Ca^2+ and Mg^2+). Next, the peritoneal wash was analyzed and the total counting of white blood cells was made in a Newbauer's chamber under an optical microscope with a 40× objective.
# [3] = tested on: abdominal writhing induced by acetic acid; test: Abdominal writhing assay induced by acetic acid; assay type: in vivo; conditions: oral, mice, acetic acid 0.1N i.p. after 1 hour, writhings counted during 20 minutes
# Protocol: In order to evaluate the peripheral analgesic activity of the compounds, an abdominal writhing assay induced by acetic acid (Table 6) was carried out. In this assay, we could infer that compound ID has an important analgesic activity, inhibiting abdominal writhing by 66%. […] The analgesic activity may be related to the ability of these compounds to inhibit the cytokine TNFα, since it is known that this would be one of the mechanisms that explain the analgesia of molecules such as thalidomide.
# The antinociceptive profile was evaluated through the abdominal writhing assay induced by acetic acid in mice. In this assay, Swiss mice from both genders were used, weighing from 21 to 28 grams, fasted for a time period of about 8 hours. The test substance was administered orally and had, as a carrier, 5% gum arabic. After 1 hour, the administration of acetic acid 0.1N (0.1 mL/10 g weight) was performed in the peritoneal cavity of the animals. Ten minutes after the injection of acetic acid, writhings were counted during 20 minutes.
compound,measurement,setting,value
"Nc1ccc(S(=O)(=O)NO)cc1 [Compound IIA, 4-amino-N-hydroxybenzenesulphonamide]",mutagenicity ratio (MR),"[1]; TA 100, +S9, 0.98 μmol/plate",1.24
same,number of revertants per plate,"[1]; TA 100, +S9, 0.98 μmol/plate",160 ± 12.4 revertants/plate
same,mutagenicity ratio (MR),"[1]; TA 100, +S9, 1.96 μmol/plate",1.36
same,number of revertants per plate,"[1]; TA 100, +S9, 1.96 μmol/plate",175.7 ± 2 revertants/plate
same,mutagenicity ratio (MR),"[1]; TA 100, +S9, 3.92 μmol/plate",1.43
same,number of revertants per plate,"[1]; TA 100, +S9, 3.92 μmol/plate",185.3 ± 15 revertants/plate
same,mutagenicity ratio (MR),"[1]; TA 100, +S9, 7.85 μmol/plate",1.59
same,number of revertants per plate,"[1]; TA 100, +S9, 7.85 μmol/plate",206 ± 13.6 revertants/plate
same,mutagenicity ratio (MR),"[1]; TA 100, +S9, 15.7 μmol/plate",2.74
same,number of revertants per plate,"[1]; TA 100, +S9, 15.7 μmol/plate",354 ± 6.5 revertants/plate
same,mutagenicity ratio (MR),"[1]; TA 100, −S9, 0.98 μmol/plate",0.99
same,number of revertants per plate,"[1]; TA 100, −S9, 0.98 μmol/plate",146.3 ± 5.1 revertants/plate
same,mutagenicity ratio (MR),"[1]; TA 100, −S9, 1.96 μmol/plate",1.23
same,number of revertants per plate,"[1]; TA 100, −S9, 1.96 μmol/plate",180.5 ± 7.8 revertants/plate
same,mutagenicity ratio (MR),"[1]; TA 100, −S9, 3.92 μmol/plate",1.22
same,number of revertants per plate,"[1]; TA 100, −S9, 3.92 μmol/plate",179 ± 11.3 revertants/plate
same,mutagenicity ratio (MR),"[1]; TA 100, −S9, 7.85 μmol/plate",1.17
same,number of revertants per plate,"[1]; TA 100, −S9, 7.85 μmol/plate",172.7 ± 12.5 revertants/plate
same,mutagenicity ratio (MR),"[1]; TA 100, −S9, 15.7 μmol/plate",1.19
same,number of revertants per plate,"[1]; TA 100, −S9, 15.7 μmol/plate",175 ± 2.8 revertants/plate
same,concentration above which the number of revertants is reduced by cell toxicity,[1]; with metabolic activation,Above 15.7 μmol/plate
same,"Cell Number avg (×106), total leukocytes",[2],4.0 ×106
same,Inhibition % (leukocyte infiltrate),[2],28.57%
same,Average (abdominal writhings),[3],30.4
"O=C1c2ccccc2C(=O)N1CCO[N+](=O)[O-] [IB, 2-(1,3-dioxo-1,3-dihydro-2H-isoindol-2-yl)ethyl nitrate]",mutagenicity ratio (MR),"[1]; TA 100, +S9, 0.01 μmol/plate",3.4
same,number of revertants per plate,"[1]; TA 100, +S9, 0.01 μmol/plate",354 ± 6.9 revertants/plate
same,mutagenicity ratio (MR),"[1]; TA 100, +S9, 0.021 μmol/plate",3.22
same,number of revertants per plate,"[1]; TA 100, +S9, 0.021 μmol/plate",335 ± 10.8 revertants/plate
same,mutagenicity ratio (MR),"[1]; TA 100, +S9, 0.042 μmol/plate",3.8
same,number of revertants per plate,"[1]; TA 100, +S9, 0.042 μmol/plate",397 ± 25.9 revertants/plate
same,mutagenicity ratio (MR),"[1]; TA 100, +S9, 0.085 μmol/plate",3.8
same,number of revertants per plate,"[1]; TA 100, +S9, 0.085 μmol/plate",395 ± 40.2 revertants/plate
same,mutagenicity ratio (MR),"[1]; TA 100, +S9, 0.17 μmol/plate",2.5
same,number of revertants per plate,"[1]; TA 100, +S9, 0.17 μmol/plate",261 ± 11 revertants/plate
same,mutagenicity ratio (MR),"[1]; TA 100, −S9, 0.01 μmol/plate",1.49
same,number of revertants per plate,"[1]; TA 100, −S9, 0.01 μmol/plate",171 ± 48.9 revertants/plate
same,mutagenicity ratio (MR),"[1]; TA 100, −S9, 0.021 μmol/plate",1.74
same,number of revertants per plate,"[1]; TA 100, −S9, 0.021 μmol/plate",200 ± 23.3 revertants/plate
same,mutagenicity ratio (MR),"[1]; TA 100, −S9, 0.042 μmol/plate",1.94
same,number of revertants per plate,"[1]; TA 100, −S9, 0.042 μmol/plate",223 ± 45.04 revertants/plate
same,mutagenicity ratio (MR),"[1]; TA 100, −S9, 0.085 μmol/plate",1.8
same,number of revertants per plate,"[1]; TA 100, −S9, 0.085 μmol/plate",206 ± 30.2 revertants/plate
same,mutagenicity ratio (MR),"[1]; TA 100, −S9, 0.17 μmol/plate",1.43
same,number of revertants per plate,"[1]; TA 100, −S9, 0.17 μmol/plate",165 ± 11.1 revertants/plate
same,"Cell Number avg (×106), total leukocytes",[2],2.73 ×106
same,Inhibition % (leukocyte infiltrate),[2],51.25* %
same,Average (abdominal writhings),[3],39.2
same,Inhibition % (abdominal writhing),[3],23.22%
